The subject of test [1] is MCF-7 cells. The test can be described thus: MTT test on suppressing cancer cells, MCF-7. The class given is cell-based. As to conditions: Homo sapiens, MCF7, 24h. The protocol:
(§1) (Nunc). To check the interference effects of candidate membranes. […]
(§2) Microplate Spectrophotometer with excitation wavelength (Boster). being 432 nm. The IC50 calculations were performed by Graphpad Prism 5 (Graphpad software, Inc.). Key residues discovery
(§3) Tests of candidate compounds on suppressing In the present study, key residues involved in the […]
(§4) by using site-directed mutagenesis and FPA competition
(§5) Cell lines including A2780, MCF-7 and SMMC- assays in combination. According to the results of pairwise 7721 were cultured to the logarithmic growth phase per-residue free energy decomposition, the residues in 3 ml complete media (RPMI1640 plus 10%FBS), contributing a lot to the binding of PUMA/Comp8 to 4 Mcl-1 were subjected to site-directed mutagenesis. By respectively. After adjusting their concentrations to 5×10 reference to the primers listed in Supplementary Table5, cells/ml with complete media, these cell lines were plated overlapping extension PCR was conducted to realize into 96-well, transparent, flat-bottom plates (150 μl/well), site-directed mutagenesis. After verified by gene each point was prepared in three replicates. The density sequencing, the individually mutated PCR products were of cultured cell lines was evaluated by MTT tests. When cloned into the expressing vector pET-43.1a (+). […]

Test [2] deals with SMMC-7721 cells. The test can be described thus: MTT test on suppressing cancer cells, SMMC-7721. The class given is cell-based. As to conditions: Homo sapiens, 24h. As for the experimental part: as §1, §2, §3, §4, §5
In test [3] the test system is A2780 cells. The test can be described thus: MTT test on suppressing cancer cells, A2780. In kind it is cell-based. As to conditions: Homo sapiens, 24h. The protocol: as §1, §2, §3, §4, §5
The subject of test [4] is DLD-1 cells infected with Ad-PUMA. Briefly: PUMA-dependent apoptosis of DLD-1 cells infected with Ad-PUMA (Caspase-Glo 3/7). Conditions: Homo sapiens; DLD-1, Ad-PUMA, 48h; read-out: EC50 (action on apoptosis). In kind it is cell-based. As for the experimental part: Tests of candidate compounds on blocking Synthesis of compound 8
PUMA-dependent apoptosis To a suspension of rhodanine (7.57 mmol) in dry Construction and validation of recombinant ethanol (10 mL), 4-Biphentlaldehyde (11.3 mmol), N-(2-Adenovirus By taking pHBAd-MCMV-GFP (Hanbio) as hydroxyethyl) piperazine (11.3 mmol), and glacial acetic vector, the construction and purification of Adenoviruses acid (0.75 mmol) were added and the resulting mixture overexpressing PUMA and PUMA-∆BH3 (PUMA was further stirred under reflux for 5-6 h. The reaction was without the BH3 domain) were performed according to completed and then cooled in an ice bath. The precipitated former reports. […]
various multiplicity of infection (MOI, 6 points, from 0 The crystal structure of Comp8 was solved by X-ray to 160) in 96-well, white, flat-bottom plates (Nunc). […] Shake gently and record the luminescence of each well on TECAN Infinite M1000 S.Y.Z., H.C., J.N.L and J.Y.L. conceived the project.
Microplate Spectrophotometer. The data were analyzed J.Y.L. and Z.T. designed the experiment. J.Y.L., Z.T., by Graphpad Prism and suitable MOI of Ad-PUMA for N.Z., X.Y.L. and C.Y.L. performed the experiments and following cell infection can be determined in this process. prepared the manuscript. […]
added to make the final compound concentrations range 2. […] The results were detected by flexible docking. […]

The subject of test [5] is A2780, MCF-7 and SMMC-7721. Briefly: MTT test, three cancer cell lines together. In kind it is cell-based. As to conditions: on A2780, MCF-7 and SMMC-7721, range over the three lines. As for the experimental part: as §1, §2, §3, §4, §5
For test [6], the target named is Mcl-1. Conditions: known Mcl-1 inhibitor; cited from earlier work.

Each structure is given as a SMILES string.

`CC1(C)CCC(c2ccc(Cl)cc2)=C(CN2CCN(c3ccc(C(=O)NS(=O)(=O)c4ccc(N[C@H](CCN5CCOCC5)CSc5ccccc5)c(S(=O)(=O)C(F)(F)F)c4)cc3)CC2)C1` [ABT-263, reference compound]: the IC50 in test [1] is 32 ± 3.48 µM; in test [2] it was 29.5 ± 1.36 µM; in test [3] it was 21.8 ± 1.85 µM; in test [5], 20 to 50 µM. The EC50 in test [4] stood at 2.75 ± 0.24 µM.

For the molecule `O=C(O)CSc1cc(NS(=O)(=O)c2ccc(Br)cc2)c2ccccc2c1O` [UMI-77], the inhibition constant (Ki) in test [6] was 0.49 µM.

The values above are taken from PMC5589576, “Targeting the apoptotic Mcl-1-PUMA interface with a dual-acting compound” (Oncotarget, 2017).
